{"source": "patent EP2435019B1", "about": "“DODECA-2E,4E-DIENE AMIDES AND THEIR USE AS MEDICAMENTS AND COSMETICS” (Dr. August Wolff GmbH & Co. KG Arzneimittel, priority 2009, dated 2010)", "key": {"[3H]-AEA uptake": {"tested_on": "[3H]-AEA uptake", "test": "Cellular uptake of [3H]-AEA in human primary monocytes (assay C)", "assay_type": "cell-based", "conditions": "Figure 1(a), 1 µM", "procedure": "• Figure 1: AEA re-uptake inhibition of 2E,4E-dieneamides 1 and 9 into human primary monocytes and U937 cells. […] Data are mean values ± SEM of 3 independent experiments in a sigmoidal dose-response curve. • Figure 2: Concentration-dependent effects of 4 and 5 on FAAH activity. […] The maximal inhibition (32%) of 5 was measured at 1 µM. Data are mean values ± SEM of 3 independent experiments. • Figure 3: Effects of low nM concentrations of N-alkylamide 7 on FAAH activity alone and in combination with the FAAH inhibitor URB597. […] Data are mean values ± SEM of 3 independent experiments. • Figure 4: 1 and 9 inhibit LPS-induced TNF-alpha release into culture medium (measured by ELISA). Human macrophages (10^6 cells) were stimulated with LPS (500 ng/ml) and treated with UCM707 and/or compounds 1 and 9 at 5 µM for 18 h. N = 3 ± SEM. • Figure 5: UCM707 (positive control) and compounds 1 and 9 diminish NO2^- production. Human macrophages (10^6 cells) were stimulated with LPS (500 ng/ml) and treated with UCM707 and/or compounds 1 and 9 at 5 µM for 18 h. Culture supernatants were assayed for nitrite levels, using the Griess reagent as a reflection of NO production. […]\nHuman lymphoma U937 cells were grown in RPMI 1640 medium (Invitrogen, Basel, Switzerland) supplemented with 10% fetal bovine serum, […] fungizone (amphotericin B), 100 units/ml penicillin, 100 µg/ml streptomycin, and 2 mM L-glutamine (all from Invitrogen) and selected for the cellular AEA uptake assay. […] The filters-bound radioactivity was measured using a Beckman LS6500 scintillation counter. Results were expressed as % of AEA uptake versus cells treated with solvent and the EC50 and IC50 values were calculated from the sigmoidal curves, which were generated using the GraphPad Prism (GraphPad Software, San Diego, CA, US)."}, "NO2^- production": {"tested_on": "NO2^- production", "test": "NO2- production in LPS-stimulated human macrophages (Griess reagent)", "assay_type": "cell-based", "conditions": "Figure 5; LPS 500 ng/ml; 5 µM for 18 h", "procedure": "• Figure 1: AEA re-uptake inhibition of 2E,4E-dieneamides 1 and 9 into human primary monocytes and U937 cells. […] Data are mean values ± SEM of 3 independent experiments in a sigmoidal dose-response curve. • Figure 2: Concentration-dependent effects of 4 and 5 on FAAH activity. […] The maximal inhibition (32%) of 5 was measured at 1 µM. Data are mean values ± SEM of 3 independent experiments. • Figure 3: Effects of low nM concentrations of N-alkylamide 7 on FAAH activity alone and in combination with the FAAH inhibitor URB597. […] Data are mean values ± SEM of 3 independent experiments. • Figure 4: 1 and 9 inhibit LPS-induced TNF-alpha release into culture medium (measured by ELISA). Human macrophages (10^6 cells) were stimulated with LPS (500 ng/ml) and treated with UCM707 and/or compounds 1 and 9 at 5 µM for 18 h. N = 3 ± SEM. • Figure 5: UCM707 (positive control) and compounds 1 and 9 diminish NO2^- production. Human macrophages (10^6 cells) were stimulated with LPS (500 ng/ml) and treated with UCM707 and/or compounds 1 and 9 at 5 µM for 18 h. Culture supernatants were assayed for nitrite levels, using the Griess reagent as a reflection of NO production. Results are the mean ± SEM of four independent experiments performed in duplicate • Figure 6: In CB receptor expressing human HaCaT keratinocytes (10^6 cells) UCM707 (control) 1 and 9 like the endocannabinoid anandamide (each 5 µM) inhibited tolerogen (10 µg/ml) induced chemokine IL-8 (6h stimulation and incubation). N = 3 ± SEM."}}}
{"molecule": "CCCCCCC/C=C/C=C/C(=O)NCCc1cccc(OC)c1", "note": "[Example 9, (2E,4E)-N-(3-methoxyphenethyl)dodeca-2,4-diene amide]", "values": [{"measurement": "[3H]-AEA uptake inhibition", "setting": "[3H]-AEA uptake", "result": "potently inhibited"}, {"measurement": "NO2^- production", "setting": "NO2^- production", "result": "diminish"}]}
{"molecule": "CCCCCCC/C=C/C=C/C(=O)NCCO", "note": "[Example 1, (2E,4E)-N-(2-hydroxyethyl)dodeca-2,4-diene amide]", "values": [{"measurement": "[3H]-AEA uptake inhibition", "setting": "[3H]-AEA uptake", "result": "potently inhibited"}, {"measurement": "NO2^- production", "setting": "NO2^- production", "result": "diminish"}]}
